Assay results reported in patent US9931347B2, “Pharmaceutical compound” (IOmet Pharma Ltd., priority 2013, dated 2018).

How the values were obtained:
[1] = molecular target: Recombinant human TDO (Homo sapiens, UniProt P48775); assay: hTDO biochemical coupled assay; settings: 330 μM L-tryptophan, coupled with kynurenine formamidase
Protocol: Exemplary compounds of the invention were prepared, and tested to determine their effect as TDO and/or IDO inhibitors. Two different assays were employed: 1. a cell-based assay for detecting the effect of test compounds on kynurenine production in two different cancer cell types. This assay utilised cancer cells which expressed either TDO or IDO and as such was used as a means of testing compound activity at these two enzymes in a cell-based context. 2. a TDO and IDO biochemical coupled assay which utilised recombinantly produced and purified TDO and IDO enzymes in combination with the enzyme formamidase. This coupled enzyme system allowed conversion of N-formylkynurenine produced by TDO or IDO activity to kynurenine which was then quantified by fluorescence following addition of Erhlich's Reagent The protocols for these are set out below.
Recombinant human IDO or TDO was incubated in 50 mM KPO4 (pH 7.0), 0.5 mM EGTA, 0.5 mM EDTA, 0.05% Triton™ X100, 20 mM ascorbate, 10 μM methylene blue, 500 U/ml catalase, 50 μg/ml KynB (kynurenine formamidase). TDO assays were carried out in the presence of 330 μM L-tryptophan, while IDO assays had the addition of 45 μM L-tryptophan. After incubation for 17 minutes at room temperature the reactions were stopped by the addition of Erhlich's reagent and incubated at room temperature for 5 minutes before the fluorescence was read (Ex475, Em530).

[2] = molecular target: T1, TDO (A172 human glioblastoma cells) (Homo sapiens, UniProt P48775); assay: A172 Kynurenine cell based assay; settings: 500 μM L-tryptophan, 48 hours, kynurenine by Erhlich's reagent
T1 construct: This assay utilised cancer cells which expressed either TDO or IDO; endogenous in cells; host or cells: A172 human glioblastoma cells
Method in brief: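 Kynurenine released into the supernatant was quantified by absorbance at 490 nm after 5 min with Erhlich's reagent. A172 cells were seeded at 30,000/well and exposed to test compound for 48 hours at 37° C. in phenol red-free RPMI containing 500 μM L-tryptophan, 10% FCS and 2 mM L-glutamine.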

[3] = molecular target: T2, IDO (SKOV3 human ovarian adenocarcinoma cells, IFN-γ induced) (Homo sapiens, UniProt P14902); assay: SKOV3 Kynurenine cell based assay; settings: IDO induced by 500 ng/ml IFN-γ, 500 μM L-tryptophan, 48 hours
T2 construct: IDO expression was induced in the SKOV3 cells by the addition of 500 ng/ml IFN-γ; endogenous in cells; host or cells: SKOV3 human ovarian adenocarcinoma cells, induced with IFN-γ
Method in brief: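 Kynurenine in the supernatant, detected by Ehrlich's reagent, served as read-out after 48 h at 37° C with or without test compound. SKOV3 cells (40,000/well) were grown in phenol red-free RPMI, 10% FCS, 2 mM L-glutamine, 500 μM L-tryptophan, with 500 ng/ml IFN-γ to induce IDO.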

[4] = molecular target: Recombinant human IDO (Homo sapiens, UniProt P14902); assay: hIDO biochemical coupled assay; settings: 45 μM L-tryptophan, coupled with kynurenine formamidase
Method in brief: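 Recombinant human IDO incubated in 50 mM KPO4 (pH 7.0), 0.5 mM EGTA, 0.5 mM EDTA, 0.05% Triton X100, 20 mM ascorbate, 10 μM methylene blue, 500 U/ml catalase and 50 μg/ml kynurenine formamidase. N-formylkynurenine converted to kynurenine, quantified by fluorescence after Ehrlich's reagent.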

T1 sequence (P48775 whole entry): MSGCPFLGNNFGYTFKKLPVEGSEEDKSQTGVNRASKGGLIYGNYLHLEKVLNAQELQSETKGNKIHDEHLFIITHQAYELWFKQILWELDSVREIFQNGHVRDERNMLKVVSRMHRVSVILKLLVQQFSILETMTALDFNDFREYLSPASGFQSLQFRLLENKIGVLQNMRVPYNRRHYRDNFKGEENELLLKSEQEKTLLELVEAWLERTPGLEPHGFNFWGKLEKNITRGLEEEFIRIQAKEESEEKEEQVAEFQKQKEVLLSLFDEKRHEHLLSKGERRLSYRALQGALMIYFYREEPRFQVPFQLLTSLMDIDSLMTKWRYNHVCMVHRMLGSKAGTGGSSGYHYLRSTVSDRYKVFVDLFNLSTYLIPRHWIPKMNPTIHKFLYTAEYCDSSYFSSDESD
Chain of Recombinant human TDO (P48775 whole entry): as above
Chain of Recombinant human IDO (P14902 whole entry): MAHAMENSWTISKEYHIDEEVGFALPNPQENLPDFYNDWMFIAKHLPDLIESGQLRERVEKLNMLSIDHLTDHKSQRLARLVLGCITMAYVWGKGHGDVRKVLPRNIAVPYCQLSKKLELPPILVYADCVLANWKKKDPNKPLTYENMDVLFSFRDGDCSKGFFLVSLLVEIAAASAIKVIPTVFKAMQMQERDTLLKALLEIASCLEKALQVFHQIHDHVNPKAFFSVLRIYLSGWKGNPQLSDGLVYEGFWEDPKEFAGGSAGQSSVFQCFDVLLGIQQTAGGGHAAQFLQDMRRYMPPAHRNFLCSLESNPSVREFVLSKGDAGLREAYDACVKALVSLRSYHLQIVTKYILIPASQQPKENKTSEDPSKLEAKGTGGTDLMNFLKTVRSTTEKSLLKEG
T2 sequence (P14902 whole entry): as above

hTDO biochemical assay pIC50 [1]	A172 Kynurenine cell based assay pIC50 [2]	SKOV3 Kynurenine cell based assay pIC50 [3]	hIDO biocehmical assay pIC50 [4]	SMILES
+− (+− = pIC50 <4.00)	+ (+ = pIC50 4.00-4.99)	+ (+ = pIC50 4.00-4.99)	+− (+− = pIC50 <4.00)	Cc1cccc2c(C3CCN(C(=O)c4ccc(F)c(C(F)(F)F)c4)CC3)c[nH]c12 [Compound 54]
+− (+− = pIC50 <4.00)	+− (+− = pIC50 <4.00)	++ (++ = pIC50 5.00-5.99)	+− (+− = pIC50 <4.00)	COc1ccc2[nH]cc(C3CCN(S(=O)(=O)c4cc(C(F)(F)F)ccc4C(F)(F)F)CC3)c2c1 [Compound 55]
+− (+− = pIC50 <4.00)	+− (+− = pIC50 <4.00)	++ (++ = pIC50 5.00-5.99)	+− (+− = pIC50 <4.00)	COC(=O)c1ccccc1S(=O)(=O)N1CCC(c2c[nH]c3ccc(C#N)cc23)CC1 [Compound 56]
+− (+− = pIC50 <4.00)	+ (+ = pIC50 4.00-4.99)	+ (+ = pIC50 4.00-4.99)	+− (+− = pIC50 <4.00)	O=S(=O)(c1cccc(OC(F)(F)F)c1)N1CCC(c2c[nH]c3ccccc23)CC1 [Compound 57]
+− (+− = pIC50 <4.00)	+ (+ = pIC50 4.00-4.99)	+ (+ = pIC50 4.00-4.99)	+− (+− = pIC50 <4.00)	Cc1ccc2[nH]cc(C3CCN(S(=O)(=O)c4ccc(C(C)(C)C)cc4)CC3)c2c1 [Compound 58]
+− (+− = pIC50 <4.00)	+ (+ = pIC50 4.00-4.99)	+ (+ = pIC50 4.00-4.99)	+− (+− = pIC50 <4.00)	Cc1cccc2c(C3CCN(C(=O)c4ccccc4OC(F)(F)F)CC3)c[nH]c12 [Compound 59]
+− (+− = pIC50 <4.00)	+ (+ = pIC50 4.00-4.99)	+ (+ = pIC50 4.00-4.99)	+− (+− = pIC50 <4.00)	CCOC(=O)N1CCC(c2c[nH]c3ccccc23)CC1 [Compound 66]
+− (+− = pIC50 <4.00)	+ (+ = pIC50 4.00-4.99)	+− (+− = pIC50 <4.00)	+− (+− = pIC50 <4.00)	O=C(CO)N1CCC(c2c[nH]c3ccccc23)CC1 [Compound 67]
++ (++ = pIC50 5.00-5.99)	+ (+ = pIC50 4.00-4.99)	+− (+− = pIC50 <4.00)	+− (+− = pIC50 <4.00)	CCNC(=O)N1CCC(c2c[nH]c3ccccc23)CC1 [Compound 68]
+ (+ = pIC50 4.00-4.99)	++ (++ = pIC50 5.00-5.99)	+− (+− = pIC50 <4.00)	+− (+− = pIC50 <4.00)	CCCS(=O)(=O)N1CCC(c2c[nH]c3ccccc23)CC1 [Compound 69]
+ (+ = pIC50 4.00-4.99)	+− (+− = pIC50 <4.00)	+− (+− = pIC50 <4.00)	+− (+− = pIC50 <4.00)	COc1ccc2[nH]cc(C3=CCN(C(C)=O)CC3)c2c1 [Compound 70]
+− (+− = pIC50 <4.00)	+ (+ = pIC50 4.00-4.99)	+− (+− = pIC50 <4.00)	+− (+− = pIC50 <4.00)	O=C(C1CC1)N1CCC(c2c[nH]c3ccccc23)CC1 [Compound 71]
+− (+− = pIC50 <4.00)	+ (+ = pIC50 4.00-4.99)	+− (+− = pIC50 <4.00)	+− (+− = pIC50 <4.00)	CC(C)S(=O)(=O)N1CCC(c2c[nH]c3ccccc23)CC1 [Compound 73]
+ (+ = pIC50 4.00-4.99)	++ (++ = pIC50 5.00-5.99)	+− (+− = pIC50 <4.00)	+− (+− = pIC50 <4.00)	COCCS(=O)(=O)N1CCC(c2c[nH]c3ccccc23)CC1 [Compound 74]
+ (+ = pIC50 4.00-4.99)	++ (++ = pIC50 5.00-5.99)	+− (+− = pIC50 <4.00)	+− (+− = pIC50 <4.00)	O=S(=O)(C1CC1)N1CCC(c2c[nH]c3ccccc23)CC1 [Compound 75]
++ (++ = pIC50 5.00-5.99)	++ (++ = pIC50 5.00-5.99)	+ (+ = pIC50 4.00-4.99)	+− (+− = pIC50 <4.00)	CS(=O)(=O)N1CC=C(c2c[nH]c3cc(Cl)ccc23)CC1 [Compound 76]
+ (+ = pIC50 4.00-4.99)	+ (+ = pIC50 4.00-4.99)	+ (+ = pIC50 4.00-4.99)	+− (+− = pIC50 <4.00)	CC(=O)N1CC=C(c2c[nH]c3cccc(F)c23)CC1 [Compound 77]
+ (+ = pIC50 4.00-4.99)	+ (+ = pIC50 4.00-4.99)	+− (+− = pIC50 <4.00)	+− (+− = pIC50 <4.00)	CS(=O)(=O)N1CC=C(c2c[nH]c3cccc(F)c23)CC1 [Compound 78]
++ (++ = pIC50 5.00-5.99)	++ (++ = pIC50 5.00-5.99)	+ (+ = pIC50 4.00-4.99)	+− (+− = pIC50 <4.00)	CC(=O)N1CC=C(c2c[nH]c3cc(Cl)ccc23)CC1 [Compound 79]
+ (+ = pIC50 4.00-4.99)	+− (+− = pIC50 <4.00)	+− (+− = pIC50 <4.00)	+− (+− = pIC50 <4.00)	CN(C)CC(=O)N1CCC(c2c[nH]c3ccccc23)CC1 [Compound 81]
+− (+− = pIC50 <4.00)	+ (+ = pIC50 4.00-4.99)	+− (+− = pIC50 <4.00)	+− (+− = pIC50 <4.00)	O=C(c1ccccc1)N1CCC(c2c[nH]c3ccccc23)CC1 [Compound 82]
+− (+− = pIC50 <4.00)	+ (+ = pIC50 4.00-4.99)	+− (+− = pIC50 <4.00)	+− (+− = pIC50 <4.00)	CCCC(=O)N1CCC(c2c[nH]c3ccccc23)CC1 [Compound 83]
+− (+− = pIC50 <4.00)	+ (+ = pIC50 4.00-4.99)	+− (+− = pIC50 <4.00)	+− (+− = pIC50 <4.00)	COCC(=O)N1CCC(c2c[nH]c3ccccc23)CC1 [Compound 84]
+− (+− = pIC50 <4.00)	++ (++ = pIC50 5.00-5.99)	++ (++ = pIC50 5.00-5.99)	+− (+− = pIC50 <4.00)	Cc1ccc2[nH]cc(C3CCN(S(C)(=O)=O)CC3)c2c1 [Compound 85]
+++ (+++ = pIC50 ≥6.00)	++ (++ = pIC50 5.00-5.99)	+ (+ = pIC50 4.00-4.99)	+− (+− = pIC50 <4.00)	CC(=O)N1CC=C(c2c[nH]c3ccc(F)cc23)CC1 [Compound 86]
++ (++ = pIC50 5.00-5.99)	+ (+ = pIC50 4.00-4.99)	+− (+− = pIC50 <4.00)	+− (+− = pIC50 <4.00)	COc1cccc2c(C3=CCN(C(C)=O)CC3)c[nH]c12 [Compound 88]
